Measurements from paper PMC5618690, “Structural and functional analysis of two small leucine-rich repeat proteoglycans, fibromodulin and chondroadherin” (Matrix Biology, 2017).

Legend:
chondroadherin = target: T1, chondroadherin (Homo sapiens, UniProt O15335); assay: Binding of peptide AB31 to chondroadherin in solution by size exclusion chromatography
T1 construct: The construct comprises residues 23–359 of Uniprot O15335 and is untagged; made in house; host or cells: HEK293 c18 cells
T1 sequence (O15335 23-359): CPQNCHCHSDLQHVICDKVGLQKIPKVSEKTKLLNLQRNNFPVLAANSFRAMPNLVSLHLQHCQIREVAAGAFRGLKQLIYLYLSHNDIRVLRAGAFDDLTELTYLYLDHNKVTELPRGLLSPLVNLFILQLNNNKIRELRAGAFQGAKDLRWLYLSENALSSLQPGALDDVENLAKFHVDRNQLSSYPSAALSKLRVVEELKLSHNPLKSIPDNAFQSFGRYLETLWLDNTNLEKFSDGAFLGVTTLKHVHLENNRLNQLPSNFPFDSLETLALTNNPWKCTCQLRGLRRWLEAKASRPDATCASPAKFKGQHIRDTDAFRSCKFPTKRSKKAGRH
Description: The natural affinity of chondroadherin for Ni^2 + affinity resin was used to purify the untagged protein. The filtered serum-free cell culture supernatant was adjusted to a final concentration of 20 mM Na-HEPES (pH 7.5) and loaded onto a 5-ml HisTrap Excel column using an Äkta Purifier. Elution was performed with an imidazole gradient in buffer A. The chondroadherin protein was further purified by size exclusion chromatography as described for fibromodulin. Chondroadherin and the collagen-like peptide AB31 were mixed in a 1:2 molar ratio and incubated for 15 min at room temperature. The chondroadherin-AB31 complex was purified by size exclusion chromatography in buffer A.

[1] = ref [26], cited from earlier work
Source text: Fig. 3 Concave face interactions in SLRP crystal structures. For each structure, two orthogonal views are shown. […] The experimentally determined mass of fibromodulin was 56.7 kDa (calculated: 41.5 kDa + 4 N-linked glycans) and that of chondroadherin was 39.6 kDa (calculated: 38.6 kDa). In comparison, using the same SEC-MALS setup, we previously determined an experimental mass of 83.5 kDa for the glycosylated decorin core protein (calculated: 36.2 kDa + 4 N-linked glycans).

decorin dimer = conditions: ref [26]; read-out: dissociation constant of decorin dimer; cited from earlier work
Source text: We used size exclusion chromatography with multi-angle light scattering (SEC-MALS) to determine the oligomeric states of fibromodulin and chondroadherin in solution (Fig. 4). The experimentally determined mass of fibromodulin was 56.7 kDa (calculated: 41.5 kDa + 4 N-linked glycans) and that of chondroadherin was 39.6 kDa (calculated: 38.6 kDa). In comparison, using the same SEC-MALS setup, we previously determined an experimental mass of 83.5 kDa for the glycosylated decorin core protein (calculated: 36.2 kDa + 4 N-linked glycans).

Row | Substance | complex formation with chondroadherin in solution (chondroadherin; SEC, Superdex 75, AB31:chondroadherin 2:1 molar ratio, 15 min, room temperature, buffer A (20 mM HEPES pH 7.5, 150 mM NaCl, 2 mM CaCl2)) | binding site quality of shared sequence (chondroadherin; sequence shared by II-26 and AB31) | oligomeric state in solution (literature) ([1]; not SEC-MALS of this work, [32], [33]) | experimental mass of glycosylated decorin core protein ([1]; same SEC-MALS setup, previously determined) [kDa] | Kd (decorin dimer) [nM]
1 | GAOGPSGFQGLOGPOGPO | forms a stable complex with chondroadherin in solution | high-affinity binding site for chondroadherin | – | – | –
2 | decorin | – | – | form stable dimers in solution | 83.5 | 1400
